Source: patent US12234258B2, “Timosaponin compounds” (priority 2012, dated 2025)
Like-named read-outs stand apart in the source and are kept apart here.

Tests used:
[1] = tested on: Aβ1-42 production in SweAPP N2A cells (N2A-APPswe); experiment: Aβ1-42 ELISA of conditioned medium of SweAPP N2A cells; assay type: cell-based
Experimental: Neuro-2A cells expressing Swedish mutants of (“SweAPP N2A cells”) was cultured in minimal essential medium with glutamine (2 mM), pyruvate (2 mM) and fetal bovine serum (10%). Cells were seeded at 6-well plate at 1×10^6 cells/mL and grown overnight. The medium was replaced.
Conditioned medium was diluted with 2 part volume of ELISA diluents. Aβ1-42 concentrations were determined by using human Aβ1-42 ultrasensitive ELISA kit (manufactured by Invitrogen).

[2] = biological target: T1, BACE activity in cell lysates (Mus musculus, UniProt P56818); experiment: BACE (β-secretase) activity in cell lysates; assay type: biochemical; conditions: cells treated with compound
T1 construct: endogenous in cells; host or cells: N2A-APPswe (Neuro-2A cells expressing Swedish mutant APP)
T1 sequence (P56818 46-501): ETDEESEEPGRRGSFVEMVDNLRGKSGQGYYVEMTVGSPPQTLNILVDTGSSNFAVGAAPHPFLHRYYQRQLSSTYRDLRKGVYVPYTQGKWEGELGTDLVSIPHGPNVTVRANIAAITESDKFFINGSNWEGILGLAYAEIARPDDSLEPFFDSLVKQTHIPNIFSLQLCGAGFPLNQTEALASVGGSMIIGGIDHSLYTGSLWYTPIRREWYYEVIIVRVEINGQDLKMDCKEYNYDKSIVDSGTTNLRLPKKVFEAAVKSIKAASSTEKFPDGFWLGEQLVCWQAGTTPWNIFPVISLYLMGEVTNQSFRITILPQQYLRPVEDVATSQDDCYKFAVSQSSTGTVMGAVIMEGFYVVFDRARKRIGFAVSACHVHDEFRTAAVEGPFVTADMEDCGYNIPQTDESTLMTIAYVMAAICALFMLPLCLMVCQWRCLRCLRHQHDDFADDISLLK
Experimental: (§1) β-Secretase assays: Confluent N2A-APPswe cells were harvested and homogenized with 50 mM MES, pH 5.5. Protein extracts (10 μg) were incubated with TAIII for 1 hr at room temperature. The β-secretase activities were assayed by adding 10 μM fluorogenic β-secretase substrate (Millipore) to the reaction mixtures and fluorescence signals (excitation, 380 nm; emission, 460 nm) were measured. β-Secretase assays were also performed using purified BACE1 (Millipore) at 100 ng in a buffer of 50 mM MES, pH 5.5.

[3] = tested on: APP processing (FL APP, β-CTF, secreted Aβ) in SweAPP N2A cells; experiment: Immunoblot analysis of APP processing in SweAPP N2A cells; assay type: cell-based; conditions: treated SweAPP N2A cells
Experimental: Cells obtained from Example 5 were washed with phosphate buffered saline and lysed with buffer containing Tris-Cl (50 mM, pH 7.4), NaCl ([…]), TRITON™ X-100 (1%) supplemented with protease inhibitors. Equal amount of proteins (30 μg) was resolved by 16.5% Tris-tricine gels and then transferred to nitrocellulose membrane with 0.2 µm pore size. For detection of secreted Aβ, 50 μL of the conditioned medium was mixed with sodium dodecyl sulfate (“SDS”) sample buffer and resolved accordingly. The membrane was blocked with Tris-buffered saline containing TWEEN™20 (0.1%) and bovine serum albumin (“BSA”) (3%) and then incubated with primary antibodies at 4° C. overnight, followed with appropriate secondary antibodies for 2 hours. The primary antibodies used included rabbit APP c-terminal antibody with 1:5000 dilution (obtained from Merck Bioscience) for detection of full length (“FL”) and CTFs, and mouse monoclonal 6E10 (obtained from Covance) for detection of secreted Aβ. The immunoreactivities were detected using enhanced chemiluminescence reagents (manufactured by GE Health care).
Immunoblot analysis: Cells were washed with phosphate buffered saline and lysed with buffer containing 50 mM Tris-Cl, pH 7.4, 150 mM NaCl, 1% Triton X-100 supplemented with protease inhibitors. Equal amount of proteins (30 μg) was resolved by 16.5% Tris-tricine gels and then transferred to nitrocellulose membrane with 0.2 µm pore size. For detection of secreted Aβ, sAPPα and sAPPβ, cells were treated with the timosaponins for 8 hr in complete medium which were then replaced with medium containing 0.1% FBS. After further incubation of 16 hr, 50 μL of the conditioned medium was mixed with SDS sample buffer and resolved accordingly. The membrane was blocked with Tris-buffered saline containing 0.1% TWEEN® 20 and 3% BSA and then incubated with primary antibodies at 4° C. overnight, followed with appropriate secondary antibodies for 2 hr. […] The immunoreactivities were detected using enhanced chemiluminescence reagents (GE Health care). […]

[4] = tested on: Neuro-2A cells; experiment: Neurite outgrowth of N2A cells; assay type: cell-based
Experimental: Immunofluorescence examination of neurite outgrowth: Neuro-2A cells were seeded at 1×10^5 cells per glass bottom dish. After treatment, cells were fixed with 4% paraformaldyde for 10 min, permeabilized with 0.1% Trition X-100, and then blocked with 1% BSA in PBS. The cells were incubated with monoclonal antibody raised against type III β-tubulin (Sigma) for 1 hr followed by Alexa488 conjugated secondary antibody. Neurite morphology was examined under fluorescence microscope.

[5] = tested on: SH-SY5Y neuronal cells transfected with mRFP-LC3; experiment: Colocalization of exogenous labeled Aβ1-42 with mRFP-LC3 autophagic compartments; assay type: cell-based, Human; conditions: 5 μM, 16 hours
[6] = tested on: NCI-H460, human non-small lung carcinoma cells; experiment: Growth of cancer cell lines: NCI-H460; assay type: cell-based; conditions: mean ± S.D., n = 3; read-out: IC50 against growth of NCI-H460
[7] = tested on: SW480, human colon adenocarcinoma cells; experiment: Growth of cancer cell lines: SW480; assay type: cell-based; conditions: mean ± S.D., n = 3; read-out: IC50 against growth of SW480
[8] = tested on: HeLa, human cervical carcinoma cells; experiment: Growth of cancer cell lines: HeLa; assay type: cell-based; conditions: mean ± S.D., n = 3; read-out: IC50 against growth of HeLa
[9] = tested on: HepG2, human hepatoma cells; experiment: Growth of cancer cell lines: HepG2; assay type: cell-based; conditions: mean ± S.D., n = 3; read-out: IC50 against growth of HepG2
[10] = biological target: T2, purified BACE1 enzyme (Homo sapiens, UniProt P56817); experiment: Purified BACE1 enzyme activity; assay type: biochemical; conditions: up to 100 μM
T2 construct: purchased Millipore
T2 sequence (P56817 46-501, species assumed): as the sequence (P56818 46-501) above, with S6P, I162V, I165L, T180S, A182V, V340I, A393L, H443Q counted along it
Experimental: as §1

[11] = tested on: Aβ42, Aβ40 and Aβ38 in N2A-APPswe cells; experiment: Aβ42, Aβ40 and Aβ38 profiles in conditioned medium by ELISA; assay type: cell-based; conditions: FIG. 18, 18 hr
Experimental: Aβ ELISA: Aβ concentrations in conditioned medium were assayed using ELISA kits for human Aβ40, human Aβ42 (ultrasensitive) (Invitrogen) and Aβ38 (MyBioSource).
Cells were treated with various concentrations of (TAIII/TAI/AA/TAV) and DMSO vehicle (C) for 18 hr. In part A of FIG. 18, the expression of full length (FL) and CTF (c99 and c83) in cell lysates and secreted APP (sAPPα and sAPPP) in the conditioned medium were examined by immunoblot using methods specified in Example 6. In part B of FIG. 18, the profiles of Aβ42, Aβ40 and Aβ38 in the conditioned medium were determined by ELISA using methods specified in Example 5.

[12] = tested on: SweAPP N2A cells; experiment: Cell viability of SweAPP N2A cells; assay type: cell-based; conditions: at concentrations that significantly inhibited Aβ production
Experimental: Cells were treated with timosaponins or other test compounds, and the conditioned medium was collected and subjected to measurement of secreted Aβ and N-terminal secreted APP (sAPPα and sAPPβ) by ELISA using specific antibodies pair targeting to respective fragments. Lysates from cells treated with timosaponins were subjected to immunoblot analysis using antibodies against c-terminal of APP to detect the full length APP, α-CTF and β-CTF. Cell viability and cytotoxicity are examined by MTT and LDH release assays, respectively. Cell culture: Neuro-2A cells expressing Swedish mutants of APP (N2A-APPswe) ENREF 12 was cultured in minimal essential medium with 2 mM glutamine, 2 mM pyruvate and 10% fetal bovine serum. Cells were seeded at 6-well plate at 1×10^6 cells/mL and grown for two days until confluence. The medium was replaced and the test compounds were added at indicated concentrations for 24 hr. Cell viability was measured by standard MTT assays.

C[C@H]1CC[C@@]2(OC1)O[C@H]1C[C@H]3[C@@H]4CC[C@@H]5C[C@@H](O[C@@H]6O[C@H](CO)[C@H](O)[C@H](O)[C@H]6O[C@@H]6O[C@H](CO)[C@@H](O)[C@H](O)[C@H]6O)CC[C@]5(C)[C@H]4CC[C@]3(C)[C@H]1[C@@H]2C [Timosaponin AIII]
IC50 ([1]; Example 5, SweAPP N2A cells, 18 hours, ELISA, read-out: IC50, reduction of Aβ1-42 peptide secretion): 2 µM
IC50 ([1]; Example 9, SweAPP N2A cells, Aβ1-42 ELISA, read-out: ICS50, inhibitor of Aβ production): 2.5 µM
IC50 ([1]; Table 4, N2A-APPswe cells, mean ± S.D, n ≥ 3, read-out: IC50 in lowering Aβ42 production): 2.3 ± 0.2 µM
BACE activity in cell lysates [2]: no change
Aβ immunoreactivities in the conditioned medium [3]: concomitant decrease
FL APP expression [3]: without significant changes
Intracellular APP β-CTF expression [3]: significantly decreased
Neurite outgrowth ([4]; Example 8, 5 μM, 18 hours, N2A cells): significant extension and branching neuritis
Neurite outgrowth ([4]; FIG. 19, TAIII 5 μM, TAI 10 μM, SSG 25 μM, 18 hr, type III β-tubulin staining): significant extension and branching of neurites
Colocalization of fluorophore labeled Aβ1-42 with mRFP-LC3 associated autophagic compartments [5]: significantly colocalized
IC50 [6]: 6.9 ± 0.31 µM
IC50 [7]: 12.2 ± 0.28 µM
IC50 [8]: 7.47 ± 2.39 µM
IC50 [9]: 7.28 ± 0.56 µM
Activity of purified BACE1 enzyme [10]: not affected
Aβ profile (Aβ42 vs Aβ40 and Aβ38) [11]: preferentially lower Aβ42 production
Cell viability [12]: did not affect the cell viability
